Measurements taken from patent US5663207A, “Gem-dichlorocyclopropanes as antitumor agents” (priority 1995, dated 1997).

Key:
[1] = system: Immature Swiss-Webster female mice (uterine weight); assay: Uterotrophic assay for estrogenic activity in immature mice; assay type: in vivo, mouse (Swiss-Webster)
Source text: (§1) The biological evaluation of the test compounds consisted of the in vitro rat cytosolic estradiol receptor binding assay, the in vivo immature mouse uterotrophic (estrogenic) and antiuterotrophic (antiestrogenic) assays, and the in vitro suppression of the proliferation of the ER positive MCF-7 human breast cancer cell line.
(§2) Vital-free immature female Swiss-Webster mice were obtained at 17-19 days of age from Sasco weighing 8-10 g, and were used in the uterotrophic and antiuterotrophic assays. Immature female Sprague-Dawley rats, obtained at 17-19 days of age from Sasco, weighing 28-33 g, were used as sources of uteri for the estradiol receptor binding assay. Animals were housed in wire topped polycarbonate cages at six animals per cage, with the environment controlled at 25° C. and a 12 h light/dark cycle. The animals received a diet of Wayne Lab Blox rodent chow and tap water ad libitum.
Immature Swiss-Webster female mice (8-15 g) at 17-19 days of age were used. Estradiol was used in the dosage range of […] (total dose) as the assay standard. Each cyclopropyl analogue was examined at doses of 5, 25, and 100 μg (total dose). […] Estrogenic activity was measured as an increase in uterine weight produced by each test compound.

[2] = system: Immature Swiss-Webster female mice (estradiol-stimulated uterine weight); assay: Antiuterotrophic assay for antiestrogenic activity in immature mice; assay type: in vivo, mouse (Swiss-Webster); settings: 0.4, 0.8, and 1.6 mg; three-day assay; estradiol 0.03 μg
Source text: as §1
as §2, with “The animals received a diet of Wayne Lab Blox rodent chow and tap water ad libitum.” left out
The antiestrogenic assay was conducted as described for the estrogenic assay, except that each mouse in the cyclopropyl treatment groups received a standard stimulating dose of estradiol (0.03 μg) in sesame oil (0.1 mL) and the test compounds or MER 25 were administered in isopropyl myristate (0.05 mL) in a dosage range of 0.4, 0.8 and 1.6 mg (total dose). […] Antiestrogenic activity was measured as a decrease in the estradiol-stimulated […] response in groups that received both the test compound and estradiol as compared to the group treated only with estradiol.

## Oc1ccc(C2(c3ccc(O)cc3)C(Cl)(Cl)C23CCCCC3)cc1 [Compound 30, 1,1-Dichloro-2,2-bis-(p-hydroxyphenyl)-spiro[2.5]octane]
[1]; doses of 5, 25 and 100 μg (total dose)
  uterine weight response (estrogenic activity, in words): dose-dependent increase in uterine weight
[1]; of that of estradiol, doses of 5, 25, and 100 μg
  relative potency (uterotrophic) versus estradiol: 0.05%
[2]
  antiestrogenic activity: effect on estradiol-induced uterine weight gain (in words): augmented uterotrophic effects beyond the stimulating dose of estradiol
